Results taken from ChEMBL document CHEMBL3352106, “Phosphocalyculin C as a pyrophosphate protoxin of calyculin C in the marine sponge Discodermia calyx” (Bioorg Med Chem Lett, 2014).

System: P388
Test: Cytotoxicity against mouse P388 cells assessed as reduction in cell viability
Format: functional, cell-based

**Q.** Which IC50 does the source give for `COC[C@@H]([C@H](O)[C@H](O)C(=O)N[C@H](C)C[C@H](C)c1nc(/C=C/C[C@@H]2O[C@]3(C[C@@H](O)[C@@H]2C)O[C@H]([C@H](C[C@H](O)[C@H](C)[C@H](O)[C@H](C)/C=C(C)/C(C)=C/C=C/C(C)=C\C#N)OC)[C@H](OP(=O)(O)O)C3(C)C)co1)N(C)C` [CALYCULIN] here?
**A.** Its IC50 is 0.007 nM.

**Q.** For `COC[C@@H]([C@H](O)[C@H](O)C(=O)N[C@H](C)C[C@H](C)c1nc(/C=C/C[C@@H]2O[C@]3(C[C@@H](O)[C@@H]2C)O[C@H]([C@H](C[C@H](O)[C@H](C)[C@H](O)[C@H](C)/C=C(C)/C(C)=C/C=C/C(C)=C\C#N)OC)[C@H](OP(=O)(O)OP(=O)(O)O)C3(C)C)co1)N(C)C`, which IC50 is on record?
**A.** The IC50 was 36 nM.
